IC50 data for 24 compounds are collected here from US8791113B2, “2,4-diaryl-substituted [1,8] naphthyridines as kinase inhibitors for use against cancer” (Merck Patent GmbH, priority 2010, dated 2014).

Where a name gives a salt, the structure may show the parent alone. Read-outs that look alike come from different tables or passages of the source.

Assay [1] has as its target T1, GST-ALK5 (TGF-beta receptor kinase) (Homo sapiens, UniProt P36897).
T1 sequence (P36897 34-503): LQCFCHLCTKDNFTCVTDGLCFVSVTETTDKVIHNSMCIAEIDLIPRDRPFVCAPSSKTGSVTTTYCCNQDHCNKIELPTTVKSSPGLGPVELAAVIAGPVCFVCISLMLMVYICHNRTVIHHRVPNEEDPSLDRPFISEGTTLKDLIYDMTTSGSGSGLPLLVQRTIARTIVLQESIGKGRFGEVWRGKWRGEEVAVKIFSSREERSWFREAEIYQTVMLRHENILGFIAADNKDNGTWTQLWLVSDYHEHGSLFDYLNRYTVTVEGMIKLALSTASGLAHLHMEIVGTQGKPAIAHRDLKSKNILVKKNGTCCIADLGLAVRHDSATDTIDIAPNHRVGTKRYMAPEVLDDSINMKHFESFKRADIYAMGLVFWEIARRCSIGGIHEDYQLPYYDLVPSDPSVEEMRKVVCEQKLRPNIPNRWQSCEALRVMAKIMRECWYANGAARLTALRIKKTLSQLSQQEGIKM
Briefly: In-vitro (enzyme) kinase flashplate assay: GST-ALK5 phosphorylation of GST-SMAD2 with 33P-ATP. Format: biochemical. The settings on record: 384-well flashplate kinase assay, GST-ALK5 / GST-SMAD2, 33P-ATP, 30° C., 45 min; read-out: TβR activity (Example 50). Here is the method: In-vitro (Enzyme) Assay for Determination of the Efficacy of Inhibitors of the Inhibition of TGF-Beta-Mediated Effects
The kinase assay was carried out as 384-well flashplate assay. 31.2 nM of GST-ALK5, 439 nM of GST-SMAD2 and 3 mM of ATP (with 0.3 μCi of ^33P-ATP/well) were incubated in a total volume of 35 μl (20 mM of HEPES, 10 mM of MgCl2, 5 mM of MnCl2, 1 mM of DTT, 0.1% of BSA, pH 7.4) without or with test substance (5-10 concentrations) at 30° C. for 45 min. The reaction was stopped using 25 μl of 200 mM EDTA solution, filtered with suction at room temperature after 30 min, and the wells were washed with 3 times 100 μl of 0.9% NaCl solution. Radioactivity was measured in the TopCount. The IC50 values were calculated using RS1.

For assay [2], the system named is TGF-beta-induced phosphorylation of Smad2 (Ser465/467) and Smad3 (Ser423/425) in Mv1-Lu cells. Briefly: Inhibition of Smad2/3 phosphorylation in Mv1Lu cells (PathScan Phospho-Smad2 ELISA). Type of assay: cell-based, mink Mustela vison. The following applies: Neogale vison, read-out: TβR activity (Example 51). The method, then:
Inhibition of Smad2/3 Phosphorylation in Mv1 Lu Cells by TGF-Beta Receptor I Kinase Inhibitors
This assay was used to determine the inhibitory potency of compounds on TGF-beta-induced phosphorylation of Smad2 (Ser465/467) and Smad3 (Ser423/425). Mv1-Lu cells (lung epithelial cell line from mink Mustela vison; ATCC number: CCL-64) were seeded in DMEM (Invitrogen) supplemented with 10% fetal bovine serum (Pan Biotech) at a defined cell density in 24-well or 96-well plates (24-well plate: 1.5×10^5 cells per well; 96-well plate: 4×10^4 cells per well). Cell cultures were incubated in DMEM at 37° C. and 10% CO2. On the next day, the medium was replaced and cells were serum-starved for 16-20 hours. The following day, serial dilutions of compounds were added to the wells, pre-incubated for 1.5 hrs before recombinant TGF-beta 1 ligand (final concentration 5 ng/ml; R&D systems) was added. After one hour of ligand stimulation, lysates were prepared and analyzed using an enzyme-linked immunosorbent assay kit (PathScan Phospho-Smad2 Kit, Cell Signaling Technologies). The ELISA detects phosphorylated Smad2 as well as phosphorylated Smad3 with the phospho-specific antibody. TGF-beta stimulated cells and unstimulated cells served as positive and negative controls (100% and background control). The concentration of the vehicle DMSO was kept constant at 0.2% (v/v) in all wells. Dose-response relationships were fitted using curve fitting algorithms of the RS1 statistics software package (Brooks Automation Inc. RS/1- Statistical Tools Handbook. Release 6.2) to determine the concentration at which half-maximal inhibition (IC50) of Smad2/3 phosphorylation was achieved.
(In general: An ELISA detects its analyte on a solid surface through an enzyme-linked reagent.)

Where [3] appears, read: Mv1-Lu cells, TGF-beta 1 5 ng/ml, Phospho-Smad2/3 ELISA.

For `O=c1c2cnccc2c(-c2cc(-c3cc(Cl)ccc3F)nc3ncccc23)cn1CCCO` [Compound 75, 4-[2-(5-Chloro-2-fluoro-phenyl)-[1,8]naphthyridin-4-yl]-2-(3-hydroxy-propyl)-2H-[2,7]naphthyridin-1-one], the IC50 in assay [1] and in assay [2] (setting [3]) was below 1000 nM each time.
Regarding `COc1nnc(-c2cc(-c3ccccc3F)nc3ncccc23)c2ccncc12` [Compound 32, 1-[2-(2-Fluoro-phenyl)-[1,8]naphthyridin-4-yl]-4-methoxy-pyrido[3,4-d]pyridazine], the figures for the IC50 in assay [1] and in assay [2] (setting [3]) were below 1000 nM and above 10000 nM, respectively.
The corresponding values for `Cn1cc(-c2ccc(-c3cc(-c4ccccc4F)nc4ncccc34)c3cnccc23)cn1` [Compound 64, 2-(2-Fluoro-phenyl)-4-[5-(1-methyl-1H-pyrazol-4-yl)-isoquinolin-8-yl]-[1,8]naphthyridine] are 1000 to 10000 nM and below 1000 nM.
As to `Fc1ccccc1-c1cc(-c2ncnc3cnccc23)c2cccnc2n1` [Compound 18, 4-[2-(2-Fluoro-phenyl)-[1,8]naphthyridin-4-yl]-pyrido[3,4-d]pyrimidine], the results for the IC50 in assay [1] and in assay [2] (setting [3]) were 1000 to 10000 nM and above 10000 nM, respectively.
For `Fc1ccccc1-c1cc(-c2cnc(OCCN3CCOCC3)c3cnccc23)c2cccnc2n1` [Compound 78, 2-(2-Fluoro-phenyl)-4-[1-(2-morpholin-4-yl-ethoxy)-[2,7]naphthyridin-4-yl]-[1,8]naphthyridine], in that order: below 1000 nM and 1000 to 10000 nM.
For `Fc1ccc(Cl)cc1-c1cc(-c2ncnc3cnccc23)c2cccnc2n1` [Compound 24, 4-[2-(5-Chloro-2-fluoro-phenyl)-[1,8]naphthyridin-4-yl]-pyrido[3,4-d]pyrimidine], in that order: below 1000 nM and 1000 to 10000 nM.
For `Nc1ccc2c(-c3cccc4c(N)nccc34)cc(-c3ccccc3F)nc2n1` [Compound 117, 5-(1-Amino-isoquinolin-5-yl)-7-(2-fluoro-phenyl)-[1,8]naphthyridin-2-ylamine], in that order: below 1000 nM and below 1000 nM.
Take `Fc1ccccc1-c1cc(-c2ccc(OCCN3CCOCC3)c3cnccc23)c2cccnc2n1` [Compound 25, 2-(2-fluoro-phenyl)-4-[8-(2-morpholin-4-yl-ethoxy)-isoquinolin-5-yl]-[1,8]naphthyridine]: the IC50 in assay [1] and in assay [2] (setting [3]) was below 1000 nM throughout.
For `Fc1ccc(Cl)cc1-c1cc(-c2cncc3ncccc23)c2cccnc2n1` [Compound 37, 5-[2-(5-Chloro-2-fluoro-phenyl)-[1,8]naphthyridin-4-yl]-[1,7]naphthyridine], the IC50 in assay [1] is below 1000 nM; in assay [2] (setting [3]), 1000 to 10000 nM.
For `Nc1nccc2c(-c3cc(-c4ccccc4)nc4ncccc34)nccc12` [Compound 87, 5-(2-Phenyl-[1,8]naphthyridin-4-yl)-[2,6]naphthyridin-1-ylamine], in that order: below 1000 nM and below 1000 nM.
For `Fc1ccc(Cl)cc1-c1cc(-c2cc(OCCN3CCOCC3)nc3cnccc23)c2cccnc2n1` [Compound 112, 4-[2-(5-Chloro-2-fluoro-phenyl)-[1,8]naphthyridin-4-yl]-2-(2-morpholin-4-yl-ethoxy)-[1,7]naphthyridine], in that order: below 1000 nM and below 1000 nM.
For `O=c1cc(-c2cc(-c3cc(Cl)ccc3F)nc3ncccc23)c2ccncc2n1CCN1CCOCC1` [Compound 110, 4-[2-(5-Chloro-2-fluoro-phenyl)-[1,8]naphthyridin-4-yl]-1-(2-morpholin-4-yl-ethyl)-1H-[1,7]naphthyridin-2-one], in that order: 1000 to 10000 nM and above 10000 nM.
Regarding `Nc1ccc2cnccc2c1-c1cc(-c2ccccc2F)nc2ncccc12` [Compound 62, 5-[2-(2-Fluoro-phenyl)-[1,8]naphthyridin-4-yl]-isoquinolin-6-ylamine], the IC50 in assay [1] was below 1000 nM; in assay [2] (setting [3]), 1000 to 10000 nM.
For the compound `Cc1cccc(-c2cc(-c3nccc4c(N)nccc34)c3cccnc3n2)n1` [Compound 21, 5-[2-(6-Methyl-pyridin-2-yl)-[1,8]naphthyridin-4-yl]-[2,6]naphthyridin-1-ylamine hydrochloride], the IC50 in assay [1] and in assay [2] was below 1000 nM throughout.
Take `Nc1nccc2c(-c3cc(-c4cc(Cl)ccc4F)nc4ncccc34)cccc12` [Compound 4, 5-[2-(5-Chloro-2-fluoro-phenyl)-[1,8]naphthyridin-4-yl]-isoquinolin-1-ylamine]: the IC50 in assay [1] and in assay [2] (setting [3]) was below 1000 nM in each case.
As to `O=c1c2cnccc2c(-c2cc(-c3cc(Cl)ccc3F)nc3ncccc23)cn1CCN1CCCC1` [Compound 91, 4-[2-(5-Chloro-2-fluoro-phenyl)-[1,8]naphthyridin-4-yl]-2-(2-pyrrolidin-1-yl-ethyl)-2H-[2,7]naphthyridin-1-one], the IC50 in assay [1] and in assay [2] (setting [3]) was below 1000 nM each time.
In the case of `Cn1cc(-c2cnc3nc(-c4ccccc4F)cc(-c4nccc5c(N)nccc45)c3c2)cn1` [Compound 116, 5-[2-(2-Fluoro-phenyl)-6-(1-methyl-1H-pyrazol-4-yl)-[1,8]naphthyridin-4-yl]-[2,6]naphthyridin-1-ylamine], the IC50 in assay [1] and in assay [2] (setting [3]) was above 10000 nM each time.
As for `COc1cnc(-c2cc(-c3ccccc3F)nc3ncccc23)c2ccncc12` [Compound 115, 2-(2-Fluoro-phenyl)-4-(4-methoxy-[2,6]naphthyridin-1-yl)-[1,8]naphthyridine], the IC50 in assay [1] and in assay [2] (setting [3]) was below 1000 nM throughout.
For the compound `CN(C)CCOc1ccc(-c2cc(-c3cc(Cl)ccc3F)nc3ncccc23)c2ccncc12` [Compound 82, (2-{5-[2-(5-Chloro-2-fluoro-phenyl)-[1,8]naphthyridin-4-yl]-isoquinolin-8-yloxy}-ethyl)-dimethyl-amine], the IC50 in assay [1] and in assay [2] (setting [3]) was below 1000 nM each time.
As to `Nc1ccc2c(-c3nccc4c(N)nccc34)cc(-c3ccccc3F)nc2n1` [Compound 114, 5-(5-Amino-[2,6]naphthyridin-1-yl)-7-(2-fluoro-phenyl)-[1,8]naphthyridin-2-ylamine], the IC50 in assay [1] and in assay [2] (setting [3]) was below 1000 nM each time.
As for `O=c1c2cnccc2c(-c2cc(-c3cc(Cl)ccc3F)nc3ncccc23)cn1CCN1CCOCC1` [Compound 76, 4-[2-(5-Chloro-2-fluoro-phenyl)-[1,8]naphthyridin-4-yl]-2-(2-morpholin-4-yl-ethyl)-2H-[2,7]naphthyridin-1-one], the IC50 in assay [1] and in assay [2] (setting [3]) was 1000 to 10000 nM throughout.
Turning to `COCC(=O)Nc1nccc2c(-c3cc(-c4ccccc4F)nc4ncccc34)nccc12` [Compound 73, N-{5-[2-(2-Fluoro-phenyl)-[1,8]naphthyridin-4-yl]-[2,6]naphthyridin-1-yl}-2-methoxy-acetamide], the IC50 in assay [1] and in assay [2] (setting [3]) was 1000 to 10000 nM each time.
For the compound `CCN(CC)CCOc1ccc(-c2cc(-c3cc(F)ccc3F)nc3ncccc23)c2ccncc12` [Compound 103, (2-{5-[2-(2,5-Difluoro-phenyl)-[1,8]naphthyridin-4-yl]-isoquinolin-8-yloxy}-ethyl)-diethyl-amine], the IC50 in assay [1] and in assay [2] (setting [3]) was below 1000 nM in each case.
Regarding `O=c1[nH]cc(-c2cc(-c3cc(F)ccc3F)nc3ncccc23)c2ccncc12` [Compound 107, 4-[2-(2,5-Difluoro-phenyl)-[1,8]naphthyridin-4-yl]-2H-[2,7]naphthyridin-1-one], the IC50 in assay [1] and in assay [2] (setting [3]) was below 1000 nM in each case.
